Assay results published in US8227512B2, “Pharmaceutical composition containing daurinol for the prevention and treatment of cancers” (Korea Institute of Science and Technology, priority 2007, dated 2012).
“And” between values parts separate entries of the source, which are not always exact repeats. Equal values may be shown once. Read-outs that look alike come from different tables or passages of the source.

Experiments:
DLD-1 [1] = assay: MTT cancer cell growth inhibition by daurinol; format: cell-based; details: Homo sapiens, read-out: IC50 (concentration for 50% of cell growth inhibition)
Experimental: (§1) Daurinol obtained by the method of Example 2 was treated to human colon cancer cell lines HCT116 (American type of cell culture, ATCC) and DLD-1 (American type of cell culture, ATCC) to investigate the cancer cell growth inhibitory effect. The cell lines were cultured in MEM supplemented with 10% fetal bovine serum and antibiotics (penicillin and streptomycin) in a 37° C., 5% CO2 incubator. Sub-culture was performed every 2-3 days.
(§2) HCT116 and DLD-1 were inoculated in a 96-well plate at the concentration of 5×10^3 cells/well, followed by culture for 24 hours. Daurinol dissolved in DMSO (Dimethyl Sulfoxide) was treated thereto at different concentrations of 0.1-200 μg/ml for 24 and 48 hours. MTT reagent (methylthiazol-2-yl-2.5 diphenyl tetrazolium bromide) was treated thereto. 1-3 hours later, OD450 was measured to investigate cell growth.

HCT116 [2] = assay: MTT cancer cell growth inhibition by daurinol; format: cell-based; details: Homo sapiens, HCT-116, read-out: IC50 (concentration for 50% of cell growth inhibition)
Experimental: as §1, §2

HCT116 cells [3] = assay: Apoptosis by annexin V-FITC / propidium iodide co-staining, flow cytometry; format: cell-based, human; details: HCT116, 5 μM daurinol, 24 and 48 hours (FIGS. 7 and 8)
Text: The induction of apoptosis by daurinol obtained by the method of Example 2 was thoroughly examined by co-staining with annexin V—FITC (fluorescein isothiocyanate) and propidium iodide.
In normal cells, phosphatidylserine, one of the cell membrane forming phospholipids, is always heading toward inside of the cell. When early apoptosis is induced, this phosphatidylserine is exposed outside of the cell. Thus, the apoptotic cells can be detected by using green fluorescence labeled annexin V that is selectively bound to phosphatidylserine.
HCT116 cells were inoculated in 60×15 cm culture dishes at the concentration of 5×10^5 cells per dish, followed by culture for 24 hours. Daurinol dissolved in DMSO (Dimethyl Sulfoxide) was treated thereto at the concentrations of 5 μM for 24 and 48 hours. The cells were harvested and washed with DPBS (Dulbecco's Phosphate Buffered Saline). 1×10^6 cells were stained with annexin V-FITC (fluorescein isothiocyanate) and propidium iodide for 15 minutes, and then were analyzed by flow cytometry.

DLD-1 [4] = assay: Cell cycle analysis, propidium iodide staining, flow cytometry; format: cell-based, human; details: for Cell cycle ratio, sub G0/G1 ratio (index for apoptosis): 48 hours (control 0); for Cell cycle ratio, S phase ratio: 48 hours (control 29.6)
Experimental: (§3) Human colon cancer cell lines HCT116 and DLD-1 were inoculated in 60×15 cm culture dishes at the concentration of 5×10^5 cells per dish, followed by culture for 24 hours. Daurinol dissolved in DMSO (Dimethyl Sulfoxide) was treated thereto at the concentrations of 5-20 μM for 24, 48 and 72 hours, respectively. The cells were harvested and washed with DPBS (Dulbecco's Phosphate Buffered Saline), followed by fixation in 70% ethanol at −20° C. for more than one day. The cells were washed again with DPBS and stained with propidium iodide for 20 minutes, and then were analyzed by flow cytometry. The propidium iodide selectively stains intracellular DNA. So, the fluorescence by propidium iodide and cell numbers was used as variants to make a graph, showing the pattern of cell cycle. According to this graph, cell cycle blocking activity of daurinol and apoptosis induced by daurinol could be confirmed.

HCT116 [5] = assay: as above; format: cell-based, human; details: for Cell cycle ratio, sub G0/G1 ratio (index for apoptosis): 48 hours (control 0.1); for Cell cycle ratio, S phase ratio: 48 hours (control 33.7)
Experimental: as §3

HCT116 cells [6] = assay: Morphological changes under DIC light microscope; format: cell-based, human; details: HCT116, 5 μM daurinol
Experimental: Daurinol obtained by the method of Example 2 was treated to cancer cells and then morphological changes of the cancer cells were observed under DIC (differential interference contrast) light microscope.
HCT116 cells were inoculated in 60×15 cm culture dishes at the concentration of 5×10^5 cells per dish, followed by culture for 24 hours. 5 μM of daurinol dissolved in DMSO (Dimethyl Sulfoxide) was treated thereto, followed by culture for 12, 24, 48, 72 and 96 hours respectively. Morphological changes of the cells were observed under DIC light microscope.

COc1cc2c(-c3ccc4c(c3)OCO4)c3c(cc2cc1O)COC3=O [daurinol]
IC50 (DLD-1 [1]; DLD-1, 24 hours treatment): 10.5 µg/mL and 30 µM | IC50 (DLD-1 [1]; DLD-1, 48 hours treatment): 1.4 µg/mL and 4.08 µM | IC50 (HCT116 [2]; HCT116, 24 hours treatment): 4.4 µg/mL and 12.4 µM | IC50 (HCT116 [2]; HCT116, 48 hours treatment): 0.7 µg/mL and 2.07 µM | Apoptosis (annexin V-FITC positive cells) versus control (HCT116 cells [3]): significantly induced | Cell cycle ratio, sub G0/G1 ratio (index for apoptosis) (DLD-1 [4]; DLD-1, 5 μM daurinol): 0.3% | Cell cycle ratio, S phase ratio (DLD-1 [4]; DLD-1, 5 μM daurinol): 68.6% | Cell cycle ratio, sub G0/G1 ratio (index for apoptosis) (DLD-1 [4]; DLD-1, 10 μM daurinol): 0.6% | Cell cycle ratio, S phase ratio (DLD-1 [4]; DLD-1, 10 μM daurinol): 64.1% | Cell cycle ratio, sub G0/G1 ratio (index for apoptosis) (DLD-1 [4]; DLD-1, 20 μM daurinol): 1.4% | Cell cycle ratio, S phase ratio (DLD-1 [4]; DLD-1, 20 μM daurinol): 68.0% | S phase of cell cycle versus untreated control (HCT116 [5]; HCT116, 5 μM daurinol, 24, 48 and 72 hours (FIG. 5)): significantly increased | Cell cycle ratio, sub G0/G1 ratio (index for apoptosis) (HCT116 [5]; HCT116, 5 μM daurinol): 3.8% | Cell cycle ratio, S phase ratio (HCT116 [5]; HCT116, 5 μM daurinol): 52.8% | sub G0/G1 ratio, the index for apoptosis (HCT116 [5]; HCT116, 5 μM daurinol, different treatment times (FIG. 6)): significantly increased | Cell cycle ratio, sub G0/G1 ratio (index for apoptosis) (HCT116 [5]; HCT116, 10 μM daurinol): 4.6% | Cell cycle ratio, S phase ratio (HCT116 [5]; HCT116, 10 μM daurinol): 61.1% | Cell cycle ratio, sub G0/G1 ratio (index for apoptosis) (HCT116 [5]; HCT116, 20 μM daurinol): 9.4% | Cell cycle ratio, S phase ratio (HCT116 [5]; HCT116, 20 μM daurinol): 60.8% | Morphological changes of the cells (HCT116 cells [6]; after 24 hours (FIG. 9)): the boundary of the cells became obvious | Morphological changes of the cells (HCT116 cells [6]; after 48 hours (FIG. 9)): started to detach from the bottom of culture dish
